“Also recorded” adds a separate entry of the source.
Assays:
[1] = system: A549 cells; experiment: A549 cell viability by MTS assay; assay type: cell-based, human; conditions: 48 hrs treatment
Protocol: A549 cells (2500/well) were plated in 96 well trays in DMEM with 0.5% FBS and cultured at 37° C. with 5% CO2 overnight. The following day RB compounds were added and cells incubated for a further 48 hours prior to removal of the medium and replacement with MTS reagent diluted 1:6 in Dulbecco's PBS. The cells were incubated at 37° C. for a further 4 hours and the conversion of MTS to the coloured formazan compound determined by measurement of absorbance at 490 nm.

[2] = system: Jurkat cells; experiment: Jurkat apoptosis assays (TMRE, caspase 3, Annexin V, viability by flow cytometry); assay type: cell-based
Protocol: (§1) Jurkat cells were routinely set up in apoptosis assays at 2×10^5/ml in RPMI with 0.5% FBS. After treatment, cells were stained either with 200 nM TMRE, 5 μl/ml NucView™ (Biotium), or Annexin V-FITC (Roche) for 15 mins prior to analysis by flow cytometry. Forward- and side-scatter properties were used to exclude debris and a ‘viable’ gate corresponding to the intact, PI negative cell population was used for fluorescence analysis. For A549, cells at 90% confluency were treated with RB compounds for 48 hrs in DMEM with 0.5% FBS. After treatment, cells were released with trypsin and then stained with NucView™ prior to analysis by flow cytometry.

[3] = system: A549 cells; experiment: A549 caspase-3 activation (NucView, flow cytometry); assay type: cell-based, human; conditions: 48 hrs treatment
Protocol: as §1

[4] = system: A549 cells; experiment: A549 colony assay in soft agar; assay type: cell-based, human; conditions: 14 days
Protocol: A549 cells (7500) were plated in 0.33% low-melting point agarose in DMEM with 10% FBS with and without RB compounds over a 0.5% low-melting point agarose base. Cells were incubated at 37° C. with 5% CO2 for 14 days and then colonies were photographed and analysed using Image J.

[5] = system: sphingosine kinases (SK); experiment: Effect on sphingosine kinase (SK) activity; conditions: data not shown
[6] = system: A549 xenograft; experiment: A549 xenograft study; assay type: in vivo, BALB/c nude mice
Protocol: All experimental procedures involving animals were conducted in accordance with the NHMRC Australian Code for the Care and Use of Animals for Scientific Purposes and with approval by the institutional animal ethics committee. BALB/c nude mice (Nu/Nu, female, 5-6 weeks old) were purchased from the Animal Resources Centre (Perth, Wash.) and maintained under pathogen-free conditions. A549 cells (5×106) in 100 μl PBS were injected subcutaneously into the flanks of the mice and the resulting tumour were measured using digital callipers. The tumour volume was calculated using the following formula: Volume=(larger diameter)×(small diameter)2/2. Once the tumours had reached 100 mm3, mice were divided into groups of 9 and each group administered either RB-012 in saline, FTY720 in saline or saline alone by intraperitoneal injection daily. Initially RB-12 and FTY720 were administered at 2 mg/kg for two days and then the dose was increased to 5 mg/kg for two weeks after which RB-012 was increased to 10 mg/kg but FTY720 maintained at 5 mg/kg. During this dosing regime tumours were monitored twice a week. Differences between samples were analysed using 2 way Anova and statistical significance was accepted at P<0.05.
To assess the effect of RB-012 on human lung cancer growth in vivo, A549 cells were implanted subcutaneously on the flanks of Balb/C nude mice and tumours allowed to develop until they had reached a volume of 100 mm^3. RB-012 or saline was then administered daily to assess the effect on tumour growth. Initially, to reduce the cramping and encourage tolerance, 2 mg/kg RB-012 was administered for two days and then the dose was increased to 5 mg/kg daily for two weeks. Tumour volume was monitored twice a week and after two weeks of treatment mice administered RB-012 had tumours that were 20% smaller than mice receiving saline. […] The tumours on the RB-012 treated mice continued to grow more slowly and after the third week were 30% smaller than those of saline-treated mice (P<0.05). […] Therefore we were unable to increase FTY720 dosing to match RB-012.

[7] = system: Jurkat cells; experiment: Immunoblotting of signalling and apoptosis markers in Jurkat cells; assay type: cell-based; conditions: 7.5 μM, time course
Protocol: Jurkat cells were treated at 5×10^5/ml in RPMI with 0.5% FBS as detailed. Cells were harvested by centrifugation at 1500 g for 5 mins and washed with PBS prior to lysis in NP40 lysis buffer (10 mM Tris-HCl pH7.4, 137 mM NaCl, 10% glycerol, 1% NP40, protease inhibitor (Roche), 4 mM NaF, 2 mM Na-vanadate, 10 mM β-glycerophosphate, 1 mM Na-pyrophosphate, 1 mM Na-molybdate) for 30 minutes on ice with vortexing. The lysates were clarified at 13,000 rpm for 15 minutes at 4° C. and protein concentration determined using BCA assay (Pierce). 30-40 μg of lysate were run on to Criterion-XT 4-12% Bis-Tris gels (Bio-Rad), followed by transfer onto nitrocellulose. The filters were blocked for 30 minutes at room temperature in TNT buffer (10 mM Tris-HCl pH8, 150 mM NaCl, 0.05% Tween-20) containing blocking buffer (Roche), prior to incubation with antibodies over night. Antibodies used were from Cell Signalling; Phospho-p38 MAPK(#4571), Phospho-SAPK/JNK(81E11), Phospho-p44/42 MAP kinase (#9101), Phospho-AKT S473 (#9271), p44/42 MAP kinase (#9102), AKT (#9272), BID (#2002), caspase-3 (#9602), PARP (#9542), and Santa Cruz Biotechnology; pan 14-3-3 K19 (sc-629). Following antibody binding, filters were washed in TNT for 1 hr at room temperature, incubated with 1/12,500 anti-rabbit or anti-mouse HRP secondary antibody (Pierce) for 1 hr at room temperature and finally washed for 1 hr with TNT before incubation with Clarity western ECL reagent (Bio-Rad). Filters were exposed on a LAS 4000 imager. Blots were analysed using Multi-gauge/Colony software FUJI FILM).

[8] = Toxicity of daily intraperitoneal dosing in mice; assay type: in vivo, Balb/C nude mice
Protocol: Finally, we studied the effects of RB-012 in vivo. To assess any potential toxic effects, Balb/C nude mice were administered RB-012, delivered in saline, daily by intra-peritoneal injection at 5 mg/kg.

Structure (SMILES): CCCCCCCCc1ccc(CC[N+]2(C)CCCCC2)cc1 [RB-012]
- cell viability / growth and survival (MTS), in words [1]: inhibited
- IC50 ([1]; Homo sapiens, A549): 5.5 µM
- ED50 for apoptosis induction, in words [2]: low micromolar range
- Annexin V presentation ([2]; 5 μM, 24 hours): Annexin V presentation
- cell viability ([2]; 5 μM, 24 hours): loss of viability
- apoptosis as determined by caspase-3 activation ([2]; 5 μM, within 5 hours): readily able to activate apoptosis
- caspase-3 activation [3]: induce caspase activation; also recorded: greater potency
- colony formation in soft agar [4]: slightly greater potency
- effect on SK activity [5]: does not affect SK activity
- tolerability at 10 mg/kg ([6]; 10 mg/kg daily i.p.): well tolerated without adverse effects
- tumours smaller than in mice receiving saline ([6]; after two weeks, 2 mg/kg for two days, then 5 mg/kg daily i.p.): 20%
- growth of A549 xenograft, in words ([6]; daily i.p., 2 then 5 then 10 mg/kg): retarded
- time at which BID cleavage is detected [7]: 3 h
- time at which PARP cleavage is detectable [7]: 2 h
- time at which clipping of 14-3-3 protein is detectable [7]: 2 h
- time to commitment to apoptosis [7]: 2 to 3 h
- time within which cramping after injection subsided ([8]; 5 mg/kg daily intra-peritoneal): 10 to 20 min
- adverse effects ([8]; 5 mg/kg daily intra-peritoneal in saline, 28 days): no adverse effects were noted with the exception of minor cramping
- body weight ([8]; 5 mg/kg daily intra-peritoneal, 28 days): unaltered
- steady state haemopoiesis (blood and bone marrow samples) ([8]; end of treatment period, data not shown): no changes were observed

— patent US10583115B2, “Modulators of 14-3-3 functionality and uses thereof” (University of South Australia, priority 2014, dated 2020)
